Laboratory results as given in article PMC7589057, “Synthesis of Hantzsch Adducts as Cholinesterases and Calcium Flux inhibitors, Antioxidants and Neuroprotectives” (International Journal of Molecular Sciences, 2020).
Values joined by “and” are separate entries in the source; they are usually repeats but may differ in a detail not shown here. Equal entries are not always repeated.

Columns and labels:
EeAChE = EeAChE (Electrophorus electricus, UniProt O42275); assay: biochemical; type: biochemical; settings: for inhibition at 10 µM: read-out: AChE % inhibition at 10 μM (no IC50 given)
Chain of EeAChE (O42275 24-633): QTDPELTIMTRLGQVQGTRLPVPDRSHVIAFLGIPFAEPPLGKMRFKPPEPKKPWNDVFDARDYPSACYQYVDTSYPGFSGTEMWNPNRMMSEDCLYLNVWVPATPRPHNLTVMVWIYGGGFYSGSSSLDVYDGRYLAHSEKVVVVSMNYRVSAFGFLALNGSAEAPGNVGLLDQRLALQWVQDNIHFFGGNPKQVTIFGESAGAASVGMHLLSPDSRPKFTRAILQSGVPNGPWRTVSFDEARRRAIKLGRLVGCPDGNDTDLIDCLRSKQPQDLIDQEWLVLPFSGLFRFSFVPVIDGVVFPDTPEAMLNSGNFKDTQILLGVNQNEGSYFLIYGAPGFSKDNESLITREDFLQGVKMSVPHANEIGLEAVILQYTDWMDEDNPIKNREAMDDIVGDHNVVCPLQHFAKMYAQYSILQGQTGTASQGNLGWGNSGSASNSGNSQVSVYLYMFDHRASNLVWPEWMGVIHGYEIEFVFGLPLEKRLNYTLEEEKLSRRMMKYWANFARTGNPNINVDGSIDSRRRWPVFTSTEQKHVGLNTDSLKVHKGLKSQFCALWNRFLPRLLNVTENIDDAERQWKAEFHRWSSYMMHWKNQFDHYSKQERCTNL
Protocol: (§1) The evaluation of the activity of compounds against both EeAChE and eqBuChE was evaluated following the Ellman spectrophotometric method. Briefly, the reaction happens in a final volume of 3 mL of a 0.1 M phosphate-buffered solution at pH = 8.0, containing 5,5′-dithiobis-2-nitrobenzoic acid, EeAChE or eqBuChE, tested compound and bovine albumin serum phosphate-buffered (pH = 8) solution After this pre-incubation period, acetylthiocholine iodide or butyrylthiocholine iodide was added, allowing 15 min of additional incubation time.

eqBuChE = eqBuChE (Equus caballus, UniProt P81908); assay: biochemical; settings: for inhibition at 10 µM: read-out: BuChE % inhibition at 10 μM (no IC50 given), 10 μM; for IC50: mean ± SEM, read-out: BuChE IC50
Chain of eqBuChE (P81908 whole entry): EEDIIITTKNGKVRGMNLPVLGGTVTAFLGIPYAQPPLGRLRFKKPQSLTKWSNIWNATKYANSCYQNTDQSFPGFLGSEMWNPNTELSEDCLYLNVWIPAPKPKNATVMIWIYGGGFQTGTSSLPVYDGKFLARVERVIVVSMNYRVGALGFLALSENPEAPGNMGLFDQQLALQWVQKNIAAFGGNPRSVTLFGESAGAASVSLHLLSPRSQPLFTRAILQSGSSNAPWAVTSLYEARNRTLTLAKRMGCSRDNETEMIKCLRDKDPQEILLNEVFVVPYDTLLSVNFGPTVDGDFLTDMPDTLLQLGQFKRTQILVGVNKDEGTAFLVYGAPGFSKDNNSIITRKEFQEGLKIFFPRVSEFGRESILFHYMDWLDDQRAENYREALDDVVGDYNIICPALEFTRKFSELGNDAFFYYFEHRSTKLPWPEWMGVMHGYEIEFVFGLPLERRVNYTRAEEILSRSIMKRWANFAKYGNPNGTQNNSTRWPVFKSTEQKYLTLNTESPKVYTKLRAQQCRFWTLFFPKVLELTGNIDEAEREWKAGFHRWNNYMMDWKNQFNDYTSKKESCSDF
Protocol: as §1

Ca^+2 channel = assay: Calcium channel blockade (FLIPR Calcium 6, KCl/CaCl2-stimulated SH-SY5Y cells); type: cell-based; settings: 10 μM; SH-SY5Y cells stimulated with KCl/CaCl2
Protocol: The calcium channel blockade assay was performed as described earlier. Briefly, the SH-SY5Y cells were seeded out in 96-well dark-walled plates at a density of 1 × 10^5 cells per well. After 24 h, the cells were loaded with FLIPR Calcium 6 indicator (Molecular Devices) for 2 h at 37 °C, according to the manufacturer’s protocol. Compounds were dissolved in an appropriate amount of DMSO at 10 mM concentration and diluted to a final concentration of 10 μM in Hanks′ Balanced Salt Solution (HBSS, Thermo Fisher Scientific) buffered with HEPES (Sigma-Aldrich) at pH = 7.4, and as such used were for treatment of indicator loaded cells (10 min at 37 °C). […] The baseline fluorescence was recorded for 5 s. Then, the cells were stimulated with KCl/CaCl2 solution (in HBSS, final concentration of KCl and CaCl2 was 90 and 5 mM, respectively) and the fluorescence was recorded for a further 30 s. Dimethyl sulfoxide 1% solution in HBSS was used as a vehicle control. Nimodipine (Cayman Chemical Company) was used as a reference inhibitor at 10 μM and compounds were assessed at the same final concentration in triplicate in three independent experiments. Fluorescent intensity values were normalized to the baseline.

[1] = Oxygen radical absorbance capacity assay (ORAC-FL); settings: Trolox equivalents, mean (n = 3) ± SEM
Protocol: Briefly, fluorescein and antioxidant were incubated in a black 96-well microplate (Nunc) for 15 min at 37 °C. 2,2′-Azobis(amidinopropane) dihydrochloride was then added quickly using the built-in injector of Varioskan Flash plate reader (Thermo Scientific). […] All the reactions were made in triplicate and at least three different assays were performed for each sample [9, 30].

SH-SY5Y cells [2] = assay: Neuroprotection against H2O2-induced cell death in SH-SY5Y cells (MTS); type: cell-based; settings: for H2O2 (%) neuroprotection: H2O2 200 µM
Protocol: (§2) The most balanced compounds were then submitted to evaluation of their neuroprotection activity. For this purpose, cytotoxicity was induced by H2O2, a well-known toxic responsible for the generation of ROS and by mitochondrial respiratory chain blockers oligomycin rotenone (O/R). Prior to the neuroprotective assay, the effect of the compounds on cell viability was evaluated at 1 and 10 µM, showing no cytotoxicity against SH-SY5Y cells.
(§3) SH-SY5Y cells were seeded in 96-well culture plates at a density of 12 × 10^4 cells per well in DMEM/F12 (1:1) medium supplemented with 10% fetal bovine serum, 1X non-essential amino acids, 100 units/mL penicillin and […] streptomycin (Dutscher, France). After 48 h of incubation, the cultures were treated with 100 µl of the test compounds or DMSO (0.1%) in the same medium. After 24 h, the cells were co-incubated with H2O2 (200 µM) or O/R (O at 10 µM/R at 30 µM) with or without the tested compounds at noncytotoxic concentrations for an additional period of 24 h. The percentage of cell viability was measured using CellTiter 96 AQueous Non-Radioactive Cell Proliferation (MTS) Assay (Promega, France).

SH-SY5Y cells [3] = assay: Neuroprotection against oligomycin A/rotenone (O/R)-induced cell death in SH-SY5Y cells (MTS); type: cell-based; settings: for O/R (%) neuroprotection: O at 10 µM/R at 30 µM
Protocol: as §2, §3

## CCOC(=O)C1=C(C)NC(C)=C(C(=O)OCC)C1c1ccc(OCCCCCN2CCOCC2)cc1 [3a, Diethyl-2,6-dimethyl-4-(4-((5-morpholinopentyl)oxy)phenyl)-1,4-dihydropyridine-3,5-dicarboxylate]
EeAChE; EeAChE
  inhibition at 10 µM: < 50%
eqBuChE
  inhibition at 10 µM: < 50%
Ca^+2 channel
  (%) Ca Flux Inhibition: 18.58%
[1]
  ORAC: 1.31 ± 0.01 TE

## COC(=O)C1=C(C)NC(C)=C(C(=O)OC)C1c1ccc(OCCCCCN2CCOCC2)cc1 [3b, Dimethyl-2,6-dimethyl-4-(4-((5-morpholinopentyl)oxy)phenyl)-1,4-dihydropyridine-3,5-dicarboxylate]
EeAChE; EeAChE
  inhibition at 10 µM: < 50%
eqBuChE
  inhibition at 10 µM: < 50%
Ca^+2 channel
  (%) Ca Flux Inhibition: 31.89%
[1]
  ORAC: 2.59 TE and 2.59 ± 0.04 TE

## CCOC(=O)C1=C(C)NC(C)=C(C(=O)OCC)C1c1ccc(OCCCCCN(CC)CC)cc1 [3c, Diethyl-4-(4-((5-(diethylamino)pentyl)oxy)phenyl)-2,6-dimethyl-1,4-dihydropyridine-3,5-dicarboxylate]
EeAChE; EeAChE
  inhibition at 10 µM: < 50%
eqBuChE
  IC50: 4.6 ± 0.1 µM
Ca^+2 channel
  (%) Ca Flux Inhibition: 58.21%
[1]
  ORAC: 2.64 TE and 2.64 ± 0.04 TE
SH-SY5Y cells [2]
  neuroprotective effect against H2O2 (in words): modest
SH-SY5Y cells [2]; 0.3 µM
  H2O2 (%) neuroprotection: 12.37 ± 0.08%
SH-SY5Y cells [2]; 1 µM
  H2O2 (%) neuroprotection: 24.17 ± 0.12%
SH-SY5Y cells [3]
  neuroprotective effect against O/R (in words): modest
SH-SY5Y cells [3]; 0.3 µM
  O/R (%) neuroprotection: 22.27 ± 0.09%
SH-SY5Y cells [3]; 1 µM
  O/R (%) neuroprotection: 25.87 ± 0.04%

## CCN(CC)CCCCCOc1ccc(C2C(C(=O)OC)=C(C)NC(C)=C2C(=O)OC)cc1 [3d, Dimethyl-4-(4-((5-(diethylamino)pentyl)oxy)phenyl)-2,6-dimethyl-1,4-dihydropyridine-3,5-dicarboxylate]
EeAChE; EeAChE
  inhibition at 10 µM: < 50%
eqBuChE
  inhibition at 10 µM: < 50%
Ca^+2 channel
  (%) Ca Flux Inhibition: 39.55%
[1]
  ORAC: 1.93 ± 0.68 TE

## CCOC(=O)C1=C(C)NC(C)=C(C(=O)OCC)C1c1ccc(OCCCCCN2CCN(C)CC2)cc1 [3e, Diethyl-2,6-dimethyl-4-(4-((5-(4-methylpiperazin-1-yl)pentyl)oxy)phenyl)-1,4-dihydropyridine-3,5-dicarboxylate]
EeAChE; EeAChE
  inhibition at 10 µM: < 50%
eqBuChE
  inhibition at 10 µM: < 50%
Ca^+2 channel
  (%) Ca Flux Inhibition: 40.51%
[1]
  ORAC: 1.78 ± 0.00 TE

## COC(=O)C1=C(C)NC(C)=C(C(=O)OC)C1c1ccc(OCCCCCN2CCN(C)CC2)cc1 [3f, Dimethyl-2,6-dimethyl-4-(4-((5-(4-methylpiperazin-1-yl)pentyl)oxy)phenyl)-1,4-dihydropyridine-3,5-dicarboxylate]
EeAChE; EeAChE
  inhibition at 10 µM: < 50%
eqBuChE
  inhibition at 10 µM: < 50%
Ca^+2 channel
  (%) Ca Flux Inhibition: 38.4%
[1]
  ORAC: 1.38 ± 0.02 TE

## CCOC(=O)C1=C(C)NC(C)=C(C(=O)OCC)C1c1ccc(OCCCCCN2CCC(Cc3ccccc3)CC2)cc1 [3g, Diethyl-4-(4-((5-(4-benzylpiperidin-1-yl)pentyl)oxy)phenyl)-2,6-dimethyl-1,4-dihydropyridine-3,5-dicarboxylate]
EeAChE; EeAChE
  inhibition at 10 µM: < 50%
eqBuChE
  inhibition at 10 µM: < 50%
Ca^+2 channel
  (%) Ca Flux Inhibition: 53.6%
[1]
  ORAC: 2.24 ± 0.04 TE

## COC(=O)C1=C(C)NC(C)=C(C(=O)OC)C1c1ccc(OCCCCCN2CCC(Cc3ccccc3)CC2)cc1 [3h, Dimethyl-4-(4-((5-(4-benzylpiperidin-1-yl)pentyl)oxy)phenyl)-2,6-dimethyl-1,4-dihydropyridine-3,5-dicarboxylate]
EeAChE; AChE IC50 vs tacrine
  fold less active than tacrine (AChE IC50): 60 fold
EeAChE; EeAChE, mean ± SEM, read-out: AChE IC50
  IC50: 1.8 ± 0.1 µM
eqBuChE
  IC50: 2 ± 0.1 µM
Ca^+2 channel
  (%) Ca Flux Inhibition: 47.72%
[1]
  ORAC: 2.54 TE and 2.54 ± 0.04 TE
SH-SY5Y cells [2]; 0.3 µM
  H2O2 (%) neuroprotection: 28% and 28.68% and 28.68 ± 0.02 %
SH-SY5Y cells [2]; 1 µM
  H2O2 (%) neuroprotection: 23.32 ± 0.02 %
SH-SY5Y cells [3]; 0.3 µM
  O/R (%) neuroprotection: 38.29% and 38.29 ± 0.04 %
SH-SY5Y cells [3]; 1 µM
  O/R (%) neuroprotection: 33.90% and 33.90 ± 0.05 %

## CCOC(=O)C1=C(C)NC(C)=C(C(=O)OCC)C1c1ccc(OCCCCCCN2CCOCC2)cc1 [3i, 3,5-Ethyl-2,6-dimethyl-4-(4-{[6-(morpholin-4-yl)hexyl]oxy}phenyl)-1,4-dihydropyridine-3,5-dicarboxylate]
EeAChE; EeAChE
  inhibition at 10 µM: < 50%
eqBuChE
  inhibition at 10 µM: < 50%
Ca^+2 channel
  (%) Ca Flux Inhibition: 47.55%
[1]
  ORAC: 1.22 ± 0.02 TE

## COC(=O)C1=C(C)NC(C)=C(C(=O)OC)C1c1ccc(OCCCCCCN2CCOCC2)cc1 [3j, 3,5-Dimethyl-2,6-dimethyl-4-(4-{[6-(morpholin-4-yl)hexyl]oxy}phenyl)-1,4-dihydropyridine-3,5-dicarboxylate]
EeAChE; EeAChE
  inhibition at 10 µM: < 50%
eqBuChE
  inhibition at 10 µM: < 50%
Ca^+2 channel
  (%) Ca Flux Inhibition: 52.57%
[1]
  ORAC: 0.99 ± 0.09 TE

## CCOC(=O)C1=C(C)NC(C)=C(C(=O)OCC)C1c1ccc(OCCCCCCN(CC)CC)cc1 [3k, 3,5-Diethyl-4-(4-{[6-(diethylamino)hexyl]oxy}phenyl)–2,6–dimethyl-1,4–dihydropyridine-3,5-dicarboxylate]
EeAChE; EeAChE
  inhibition at 10 µM: < 50%
eqBuChE
  IC50: 9.6 ± 0.3 µM
Ca^+2 channel
  (%) Ca Flux Inhibition: 31.66%
[1]
  ORAC: 1.21 ± 0.12 TE

## CCN(CC)CCCCCCOc1ccc(C2C(C(=O)OC)=C(C)NC(C)=C2C(=O)OC)cc1 [3l, 3,5-Dimethyl-4-(4-{[6-(diethylamino)hexyl]oxy}phenyl)-2,6–dimethyl-1,4–dihydropyridine-3,5-dicarboxylate]
EeAChE; EeAChE
  inhibition at 10 µM: < 50%
eqBuChE
  IC50: 8.7 ± 0.1 µM
Ca^+2 channel
  (%) Ca Flux Inhibition: 39.74%
[1]
  ORAC: 0.91 TE and 0.91 ± 0.01 TE

## CCOC(=O)C1=C(C)NC(C)=C(C(=O)OCC)C1c1ccc(OCCCCCCN2CCN(C)CC2)cc1 [3m, 3,5-Diethyl-2,6-dimethyl-4-(4-{[6-(4-methylpiperazin-1-yl)hexyl]oxy}phenyl)-1,4-dihydro-pyridine-3,5-dicarboxylate]
EeAChE; EeAChE
  inhibition at 10 µM: < 50%
eqBuChE
  IC50: 5.5 ± 0.1 µM
Ca^+2 channel
  (%) Ca Flux Inhibition: 50.6%
[1]
  ORAC: 1.10 ± 0.08 TE
[1]; listed as 2m
  ORAC: 1.10 TE
SH-SY5Y cells [2]
  neuroprotective effect against H2O2 (in words): modest
SH-SY5Y cells [2]; 0.3 µM
  H2O2 (%) neuroprotection: 9.55 ± 0.00%
SH-SY5Y cells [2]; 1 µM
  H2O2 (%) neuroprotection: 4.63 ± 0.02%
SH-SY5Y cells [3]
  neuroprotective effect against O/R (in words): modest
SH-SY5Y cells [3]; 0.3 µM
  O/R (%) neuroprotection: 8.95 ± 0.00%
SH-SY5Y cells [3]; 1 µM
  O/R (%) neuroprotection: 16.65 ± 0.00%

## COC(=O)C1=C(C)NC(C)=C(C(=O)OC)C1c1ccc(OCCCCCCN2CCN(C)CC2)cc1 [3n, 3,5-Dimethyl-2,6-dimethyl-4-(4-{[6-(4-methylpiperazin-1-yl)hexyl]oxy}phenyl)-1,4-dihydro-pyridine-3,5-dicarboxylate]
EeAChE; EeAChE
  inhibition at 10 µM: < 50%
eqBuChE
  inhibition at 10 µM: < 50%
Ca^+2 channel
  (%) Ca Flux Inhibition: 28.9%
[1]
  ORAC: 1.39 ± 0.12 TE

## CCOC(=O)C1=C(C)NC(C)=C(C(=O)OCC)C1c1ccc(OCCCCCCN2CCC(Cc3ccccc3)CC2)cc1 [3o]
EeAChE; EeAChE
  inhibition at 10 µM: < 50%
eqBuChE
  inhibition at 10 µM: < 50%
Ca^+2 channel
  (%) Ca Flux Inhibition: 80.19%
[1]
  ORAC: 1.36 ± 0.01 TE

## COC(=O)C1=C(C)NC(C)=C(C(=O)OC)C1c1ccc(OCCCCCCN2CCC(Cc3ccccc3)CC2)cc1 [3p, 3,5-Dimethyl-4-(4-{[6-(4-benzylpiperidin-1-yl)hexyl]oxy}phenyl)-2,6-dimethyl-1,4-dihydro-pyridine-3,5-dicarboxylate]
EeAChE; EeAChE
  inhibition at 10 µM: < 50%
eqBuChE
  inhibition at 10 µM: < 50%
Ca^+2 channel
  (%) Ca Flux Inhibition: 78.13%
[1]
  ORAC: 2.28 ± 0.01 TE

## COCCOC(=O)C1=C(C)NC(C)=C(C(=O)OC(C)C)C1c1cccc([N+](=O)[O-])c1 (centres unmarked) [NIM, nimodipine, reference compound]
Ca^+2 channel
  (%) Ca Flux Inhibition: 47.91%
